Laboratory results from patent US5278181A, “Soluble alkyl[5-[amino (phenyl)methyl]-1H-benzimidazol-2-yl] carbamate anthelmintics” (priority 1992, dated 1994).
In brackets after ≈: the same amount, converted by molar mass. Blank lines part the entries; values can stand above or below the compound they belong to.

Assays:
Aqueous solubility = conditions: water
[1] = background art; cited from earlier work
[2] = background art; cited from earlier work; remark: listed apart in the source
adult worms = conditions: background art; cited from earlier work
microfilariae = conditions: background art; cited from earlier work

- solubility (Aqueous solubility): 45 µg/mL (≈ 144 µM)
SMILES: COC(=O)Nc1nc2cc(C(=O)c3ccc(F)cc3)ccc2[nH]1 [Flubendazole, methyl [5-(4-fluorobenzoyl)-1H-benzimidazol-2-yl]carbamate]
- pain and inflammation on injection [1]: cause pain and inflammation on injection
- absorption [2]: poorly absorbed

SMILES: Cc1ccc(C(=O)Nc2ccc(S(=O)(=O)O)c3cc(S(=O)(=O)O)cc(S(=O)(=O)O)c23)cc1NC(=O)c1cccc(NC(=O)Nc2cccc(C(=O)Nc3cc(C(=O)Nc4ccc(S(=O)(=O)O)c5cc(S(=O)(=O)O)cc(S(=O)(=O)O)c45)ccc3C)c2)c1 [Suramin]
- activity against adult worms (macrofilaricidal) (adult worms): macrofilaricidal action

SMILES: CC[C@H](C)[C@H]1O[C@]2(CC[C@@H]1C)C[C@@H]1C[C@@H](C/C=C(\C)[C@@H](O[C@H]3C[C@H](OC)[C@@H](O[C@H]4C[C@H](OC)[C@@H](O)[C@H](C)O4)[C@H](C)O3)[C@@H](C)/C=C/C=C3\CO[C@@H]4[C@H](O)C(C)=C[C@@H](C(=O)O1)[C@]34O)O2 [ivermectin]
- activity against adult worms (macrofilaricidal) (adult worms): without effect on adult worms
- activity against microfilariae (microfilariae): outstanding activity against microfilariae

SMILES: COC(=O)Nc1nc2ccc(C(=O)c3ccccc3)cc2[nH]1 [mebendazole]
- pain and inflammation on injection [1]: cause pain and inflammation on injection
- absorption [2]: poorly absorbed
